Results reported in a melting point compilation (Tetko et al.; mined from patent text by program, amines drawn as free bases though some values may be those of a salt).

melting point [°C] | Structure (SMILES)
228 to 230 | C=CCOc1ccc(C(=O)C#Cc2c[nH]c3ccccc23)c(O)c1
179 | CC(=O)OC1CSC(Oc2ccc(-c3ccncc3)nc2Cl)C(OC(C)=O)C1OC(C)=O (configuration not stated)
174 | COc1cccc(NC(=O)NCC(=O)N2[C@@H](C(=O)OC(C)(C)C)CC[C@H]2c2ccccc2)c1 (racemic)
72 to 75 | OCc1ccc2c(Cl)cccc2c1
140 to 142 | COc1ccc(-n2nc(Cl)cc2-c2ccc(OCCNC(N)=O)cc2)cc1
120 to 121 | CCOC(Cc1ccc2oc(CN3c4ccccc4Sc4ccccc43)cc2c1)C(=O)O (configuration not stated)
75 to 77 | COc1cc(C(C)=O)c(OC)cc1C
84 to 86 | CN(CCCN1c2ccccc2CCc2ccccc21)C(=O)c1cccnc1
127 to 128 | CCn1c(C)nc2c(C(=O)OC)c(C(=O)OC)ccc21
140 to 141 | COC(=O)c1ccccc1NC(=O)NCc1ccccc1
57 to 61 | CCn1c(-c2ccc(OC)c(OC)c2)cc(=Nc2c(C)cc(C)cc2C)n(C)c1=O
88 to 89 | COc1cc([N+](=O)[O-])c2nccc(C)c2c1OCCCCc1ccccc1
102 to 104 | C=C(c1ccc(Cl)cc1)c1ccc(NC(=O)OC(C)(C)C)c(C)c1
176 to 179 | COc1ccccc1Sc1ccc2c(c1)CC[C@H]1NC(=O)CC[C@]21C
66 to 70 | CCOC(=O)Nc1ccc(Cl)c(N)n1
116 to 120 | COc1cc(N2CCN(C[C@H](C)O)CC2)c(F)cc1Nc1ncc2ccc(-c3ccccc3N(C)S(C)(=O)=O)n2n1
207 to 209 | CC(C)(C)c1cc(CCc2ccccc2NC(=O)N2CCN(C(=O)c3ccccc3)CC2)cc(C(C)(C)C)c1O
128 | Cc1ccc(S(=O)(=O)OCCc2c(C)nc3cc(C)ccn3c2=O)cc1
184 to 186 | O=C(CCl)NC(C(=O)O)N(C(=O)CCl)c1cscn1 (configuration not stated)

melting point [°C] | Structure (SMILES)
158 to 159 | CCCc1nc2c(N)nc3cccnc3c2n1CCCC(C)N(OC)C(C)=O (configuration not stated)
103 to 104 | O=Cc1c(-c2cccc(C(F)(F)F)c2)sc2ccccc12
142 to 146 | COc1ccccc1N1CCN(CCCNC(=O)c2cccc3c(=O)c(C)c(CCc4ccccc4)oc23)CC1
196 to 197 | COc1ccc(C2=NN(C3CCN(Cc4ccncc4)CC3)C(=O)[C@@H]3CC=CC[C@H]23)cc1OC
116 | NC(=O)C1COCCN1C1CC1 (configuration not stated)
158 to 159 | O=S(=O)(NCCCCn1ccnc1)c1ccc(Br)cc1
46 to 51 | C=C(C(=O)c1ccc(OC)c(Cl)c1Cl)C(C)C
40 to 43 | CCCCCCCCCCCC=C1NN=CN1N
232 to 240 | COc1ccccc1NC(=O)Nc1nc(Nc2ccc(CC(=O)O)cc2)nc(Oc2ccc3ccccc3c2)n1
140 to 143 | O=C1c2cc(O)ccc2CC1Cc1ccccc1 (configuration not stated)
197 | CCc1c(C(=O)NNC(=O)C(O)c2cc(F)cc(F)c2)ccc(OC)c1C (configuration not stated)
168 to 169 | O=CNNc1cccc([N+](=O)[O-])c1
122 to 125 | CN(C)CCNC(=O)c1ccc(-c2ccc3nnn(Cc4ccc5ncccc5c4)c3n2)cc1
110 | Cn1c(=O)cc(CCc2ccc(Cl)s2)c2cc(C(O)(c3ccc(Cl)cc3)c3cccnc3)ccc21 (configuration not stated)
110 to 115 | COC(=O)[C@H](CCC(=O)NCCc1ccc(O)c(OCc2ccccc2)c1)NC(=O)OCc1ccccc1
76 to 78 | COc1cc(OC)nc(NC(=O)NS(=O)(=O)Nc2ccc(F)cc2C(=O)C2CC2)n1
187 to 188 | Cc1cc(NC(=S)Nc2cc(Cl)ccc2C)sn1
118 | CCC(=O)C1=C(O)CC(c2cc3ccccc3cc2C)CC1=O (configuration not stated)

The next lines start with the molecule.

Structure (SMILES) | melting point [°C]
CC(C)c1ccc2c(c1)OC1(OC(=O)C(C)(C)C)c3ccccc3C(=O)C21OC(=O)C(C)(C)C (configuration not stated) | 153 to 157
Cn1cc(C2=C(c3cn(CCCNC(N)=O)c4ccccc34)C(=O)NC2=O)c2ccccc21 | 248 to 250
COc1ccc(-c2cnc(-c3ccccc3)[nH]c2=O)cc1OC | 230
COc1ccc(C=CC(=O)O)cc1-c1cc2c(cc1OCCCCCCO)C(C)(C)CCC2(C)C | 118 to 120
C=C(c1nc2ccccc2s1)C1CCN(CCc2ccc(OC)cc2)CC1 | 84 to 85
CCC1CC2C3CCC4=CC(=O)CCC4=C3C=CC2(C)C1O (configuration not stated) | 139 to 141
CCCCCCCCNC(=O)N1CCC(c2cc(Cc3ccc(OC)cc3)nc(N)n2)CC1 | 104 to 106
COCOc1cc(F)ccc1-c1cc(-c2cccc(Br)c2)c(C#N)c(N)n1 | 165 to 166
COc1ccc(C(=CC#N)c2cccc([N+](=O)[O-])c2)cc1OC | 118 to 120
Cc1nc(CCc2ccccc2)c2c(c1O)COC2 | 248
CC(c1ccc(-c2ccccc2)c(F)c1)c1nc(CN2CCOCC2)no1 (configuration not stated) | 91.5 to 92.5
CNC(=O)[C@@H](NC(=O)[C@@H](CC(=O)O)n1ccc(-c2ccc(-c3ccc(C#N)cc3)cc2)c1)C(C)(C)C | 142 to 144
O=C(NCCO)c1cccc(-c2ccc3cnn(-c4ccc(Cl)cc4Cl)c3c2)c1 | 191 to 192
CC(=O)OC1C(=O)N(c2nnc(C(C)(C)C)s2)C(=O)N1C (configuration not stated) | 168
O=C(Nc1ccc(F)c(C(F)(F)F)c1)N1COc2cc(OCc3ccccc3)ccc21 | 144 to 146
CCOc1ccc(C(=O)Nc2c(Cl)cncc2Cl)c2c3cc(Cl)ccc3n(Cc3ccccc3)c12 | 221 to 223
CCOC(=O)COc1ccc(CN2C(=O)C3(COc4cc5c(cc43)CCO5)c3ccccc32)cc1 (configuration not stated) | 158 to 159
CCOCCc1ccc(OCCN(C(=O)n2cncn2)c2ncnc3sc(CC)cc23)c(C)c1 | 129 to 131
Cc1cccc(NC(=O)NC2CN(C(=O)C3CCCCC3)c3ccccc3N(c3ccccc3)C2=O)c1 (configuration not stated) | 165 to 168
C[C@H]1CN(c2c(F)cc3c(=O)c(C(=O)O)cn(CCF)c3c2F)C[C@H]1NC(=O)OC(C)(C)C (relative stereo) | 217 to 219

Structure (SMILES) | melting point [°C]
CC(=O)O[C@@H]1OCC[C@@H]1NC(=O)[C@H](Cc1ccccc1)NC(=O)OCc1ccccc1 | 175 to 176
O=C1OC(COc2ccccc2)CN1CCOC1CCCCO1 (configuration not stated) | 78 to 80
OC12CCCCOC1C(OCc1ccccc1)C(OCc1ccccc1)C(OCc1ccccc1)C2OCc1ccccc1 (configuration not stated) | 106
Cn1cc(C2=C(C3CCCCC3)C(=O)NC2=O)c2ccccc21 | 224 to 225
CCCCc1ncc(/C=C(/C(=O)O)C(CCCC)c2cccs2)n1Cc1ccccc1Cl (configuration not stated) | 161 to 163
COC(=O)C(=NO)c1nc2cccc(OC)c2oc1=O | 176 to 178
CC(Cc1c[nH]c2ccccc12)(NC(=O)OC(C)(C)C(Cl)(Cl)Cl)C(=O)NCCc1ccccn1 (configuration not stated) | 130 to 133
O=C(Cn1nnc2ccccc21)Nc1ccc(-n2nc(C(F)(F)F)cc2C2CC2)nc1 | 189 to 192
Cc1ccc2c(c1)C=Cn1c(n[nH]c1=O)C2 | 232 to 234
CC[C@H](N)C(=O)N1CCC[C@H]1C(=O)NCCCSC | 120 to 121
Fc1cccc(CCc2nnc(-c3ccnc(NCCCc4ccccc4)c3)o2)c1 | 91 to 92
N=C(Cc1ccccc1)N1CC2C(=O)CCC(c3ccccc3)(c3ccccc3)C2C1 (configuration not stated) | 195
CCOc1cc2nc(S(=O)c3ccccc3-c3ccccn3)[nH]c2cc1OCC (configuration not stated) | 194 to 195
CCN1CC(N(CCN2CCCC2)S(=O)(=O)c2ccc(Nc3nccc(Nc4ccc(F)c(C)c4)n3)cc2)C1 | 195
CC(C)c1ccc2oc3cc(C#N)c(O)nc3c(=O)c2c1 | > 300
CC1(C)CN=C2C(=O)c3cc(S(=O)(=O)N4CCCC4)ccc3N2C1 | 200 to 201
CCOC(=O)C1(c2ccccc2)CCN(C2=CCC(C#N)(c3ccccn3)CC2)CC1 (configuration not stated) | 160
OCc1c(Cl)ccc(C2OCCO2)c1Cl | 82 to 85
CCC(CC)c1ccc(Cl)c2nc(Nc3cnc(OC)cc3C)n(CCCCO)c12 | 146 to 147
CC1Nc2cc(NC(=O)c3ccc(-c4ccccc4)cc3)ccc2N1C (configuration not stated) | 272 to 274

Structure (SMILES) | melting point [°C]
O=c1c2c(O)cc(OCC3CS3)cc2oc2ccc3ccccc3c12 (configuration not stated) | 167 to 168
Cc1cn(-c2c(F)cc3c(=O)c(C(=O)O)cn(C4CC4)c3c2F)cn1 | 215 to 223
CCCCCCC(=O)N[C@@H]1N=C(c2ccccc2)c2ccccc2N(C)C1=O | 49 to 54
CCOC(=O)C1CCc2c1sc(C)c2C(=O)c1ccc(SC)cc1 (configuration not stated) | 62 to 64
O=C(Br)c1ccc(F)c(Br)c1 | 34.8 to 35.8
NCCN1C(=O)c2ccccc2C1(O)c1ccccc1Cl (configuration not stated) | 172 to 174
Cn1cncc1C(O)c1ccc2c(c1)c(-c1cccc(Cl)c1)cc(=O)n2C (configuration not stated) | 167
CN(C)c1ccc(C(=O)CCCCC2CCN(Cc3ccccc3)CC2)cc1 | 121 to 123
CCOC(=O)C1CN(CC)c2nc3cc(F)c(F)cc3cc2C1=O (configuration not stated) | 152
CC(C)N(CCN1C(=O)/C(=N/NC(N)=O)c2ccccc21)C(C)C | 189 to 191
CCOC(=O)NNc1ccc(N(C)CC(C)O)nn1 (configuration not stated) | 150 to 152
c1ccc(-n2nnc3c4ccccc4c(OCc4ccccn4)nc32)cc1 | 147 to 150
CC(=O)OCC1OC(SCCCc2ccccc2)C(OC(C)=O)C(OC(C)=O)C1OC(C)=O (configuration not stated) | 73 to 74
CCCC(=O)Nc1cc(N(CCO)CCO)ccc1N=Nc1snc(C)c1C#N | 175 to 178
CC(=O)C1(O)C=c2ccccc2=NC1C (configuration not stated) | 54 to 56
CCOC(=O)c1c(C)nc2c(nc(C)n2C)c1Cl | 73 to 75
CCC(CC)n1nnc2cc(C)c(C)c([N+](=O)[O-])c21 | 106 to 108
C=CCN(CC(=O)OC(C)(C)C)c1c(N)c(=O)c1=O | 175 to 176
CCOCc1cc(I)c(=O)[nH]c1C | 220 to 222
CC(=O)OC1CCC2(C)C(CCC3C2CCC2(C)C(C(=O)C=[N+]=[N-])CCC32)C1 (configuration not stated) | 135 to 136
